# Values quoted from earlier work in patent US20260069581A1, “METHODS AND COMPOSITIONS FOR CANCER THERAPY” (OHIO STATE INNOVATION FOUNDATION, priority 2020, published 2026).
# Assays:
# [1] = test system: prostate cancer and lung adenocarcinoma cells; conditions: Ref. 32; cited from earlier work
# AML = conditions: low micromolar doses, Ref. 25; cited from earlier work
# [2] = test system: cell lines derived from T-cell lymphomas or leukemias; conditions: Ref. 25, cited from earlier work
# tubulin acetylation = conditions: concentration as high as 50 μM, Ref. 25; cited from earlier work
# Rad51 = conditions: Ref. 33; cited from earlier work
smiles,measurement,setting,value
O=C(CCCCCCC(=O)Nc1ccccc1)NO [vorinostat],Rad50 and MRE11 protein levels,[1],downregulates
COc1ccc(Cn2ccc3ccc(C(=O)NO)cc32)cc1 [PCI-34051],AML death,AML,failed to induce AML death
same,apoptosis,[2],induces caspase-dependent apoptosis
same,GI50,[2]; cell lines derived from T-cell lymphomas or leukemias,2.4 to 4 µM
same,tubulin acetylation,tubulin acetylation,did not induce significant tubulin acetylation
CN(C)Cc1c(C(=O)NCCOc2ccc(C(=O)NO)cc2)oc2ccccc12 [PCI-2481],Rad51 expression,Rad51,reduction of Rad51 expression
